Laboratory results as given in US5795899A, “Soluble salts of 4-amino-2-(4,4-dimethylimidazolidin-2-on-1-yl) pyrimidine-5-carboxylic acid N-methyl-N-(3-trifluoromethylphenyl)-amide, a process for the preparation thereof, the use thereof as pharmaceuticals and starting materials” (Hoechst Aktiengesellschaft, priority 1992, dated 1998).

Columns and labels:
[1] = test system: bronchial carcinoma cells, A 549; test: MTT assay, inhibition of cell proliferation, A 549; type: cell-based; details: Homo sapiens, A549; 72 hours incubation
Experimental: (§1) The reduced inhibitory effect on cell proliferation was tested on exponentially growing animal (mouse leukemia cells, L 1210) and human (bronchial carcinoma cells, A 549; colon carcinoma cells, HT 29) tumor cells. This entailed the tumor cells being incubated in RPMI standard medium with various concentrations of the test substances for 72 hours. Cell incubations only in fresh medium served as control. Incubations were set up in quadruplet. […] After incubation for a further 7 to 24 hours, the cell supernatant was carefully removed and the formazan dye in the cells was solubilized by adding DMSO and measured quantitatively by photometry at 492 nm. The ratio of the extinction of the substance incubations to the control incubation was quantified. The coefficient of variation in each incubation series was less than 15%. The following Table 6 indicates the IC50 values (IC50 [μg/ml] is the concentration of the test substance per ml which is necessary for 50% inhibition) from these investigations.

[2] = test system: mouse leukemia cells, L 1210; test: MTT assay, inhibition of cell proliferation, L1210; type: cell-based; details: 72 hours incubation
Experimental: as §1

LDL receptor mRNA = LDL receptor mRNA expression in vivo in rat livers (Northern blot); details: 6 hours after single oral dose of 30 mg/kg, FIG. 1
Experimental: Liver tissue was removed at the stated time after a single oral dose of 30 mg/kg of the hydrochloride of compound I and was shock-frozen in liquid nitrogen.
The Northern blot technique was used to determine the relative LDL receptor MRNA levels. The LDL receptor MRNA level is increased about 2.5-fold after six hours.
The mRNA was prepared by the method described by Chomczynski, P. and Sacchi, N. in Anal. Biochem. 162, 156 (1987). In the case of organs (such as, for example, liver), the deep-frozen tissue was previously homogenized in a mortar on dry ice, and the mRNA was further concentrated by means of oligo dT by standard methods (compare Sambrook, J., Fritsch, E. F. and Maniatis, T., Molecular Cloning, second edition, Cold Spring Harbor (1989); this collection of methods also includes descriptions of all the other relevant standard processes of molecular biology used here). […] The filters were subsequently exposed on Cronex 4 films (Dupont) in the presence of an intensifying screen at -70° C. overnight or for up to 14 days, and the hybridization signals were quantified from the intensity of blackening of the film using a commercially available laser densitometer. Subsequently, the quotient was determined from the intensity of the LDL receptor band and of the actin band as internal standard to correct for variations in yield. […]

[3] = test system: tumor cells (L 1210, A 549, HT 29); test: Cell proliferation inhibition (MTT assay), overall statement; type: cell-based, mouse and human
Experimental: as §1

physchem = details: water
[4] = test system: colon carcinoma cells, HT 29; test: MTT assay, inhibition of cell proliferation, HT 29; type: cell-based; details: Homo sapiens, 72 hours incubation
Experimental: as §1

[5] = test system: LDL receptor mRNA in human hepatocytoma cell line HepG2; test: LDL receptor mRNA expression on HepG2 cells (Northern blot); type: cell-based; details: FIG. 2
Experimental: The HepG2 cells were previously incubated in MEM standard medium which contained 10% fetal calf serum with and without hydrochloride of the compound I (10^-6 M) for 16 hours.
Lipoprotein-deficient serum (LPDS) was in this case prepared by ultracentrifugation by a standard process (Goldstein, J. L., Basu, S. K and Brown, M. S., Methods Enzymol. 98, 241 (1983)). The MRNA in the […] was prepared in analogy to the method described above.
The mRNA was prepared by the method described by Chomczynski, P. and Sacchi, N. in Anal. Biochem. 162, 156 (1987). […] The filters were subsequently exposed on Cronex 4 films (Dupont) in the presence of an intensifying screen at -70° C. overnight or for up to 14 days, and the hybridization signals were quantified from the intensity of blackening of the film using a commercially available laser densitometer. Subsequently, the quotient was determined from the intensity of the LDL receptor band and of the actin band as internal standard to correct for variations in yield. […]

HMG-CoA reductase = biological target: T1, HMG-CoA reductase (Rattus norvegicus, UniProt P51639); test: HMG-CoA reductase determination in vitro on partially purified HMG-CoA reductase from rat liver; type: biochemical; details: 10^-5 M; variation 10%
T1 construct: partially purified HMG-COA reductase from rat liver; from tissue; host or cells: rat liver (partially purified enzyme)
T1 sequence (P51639 1-887): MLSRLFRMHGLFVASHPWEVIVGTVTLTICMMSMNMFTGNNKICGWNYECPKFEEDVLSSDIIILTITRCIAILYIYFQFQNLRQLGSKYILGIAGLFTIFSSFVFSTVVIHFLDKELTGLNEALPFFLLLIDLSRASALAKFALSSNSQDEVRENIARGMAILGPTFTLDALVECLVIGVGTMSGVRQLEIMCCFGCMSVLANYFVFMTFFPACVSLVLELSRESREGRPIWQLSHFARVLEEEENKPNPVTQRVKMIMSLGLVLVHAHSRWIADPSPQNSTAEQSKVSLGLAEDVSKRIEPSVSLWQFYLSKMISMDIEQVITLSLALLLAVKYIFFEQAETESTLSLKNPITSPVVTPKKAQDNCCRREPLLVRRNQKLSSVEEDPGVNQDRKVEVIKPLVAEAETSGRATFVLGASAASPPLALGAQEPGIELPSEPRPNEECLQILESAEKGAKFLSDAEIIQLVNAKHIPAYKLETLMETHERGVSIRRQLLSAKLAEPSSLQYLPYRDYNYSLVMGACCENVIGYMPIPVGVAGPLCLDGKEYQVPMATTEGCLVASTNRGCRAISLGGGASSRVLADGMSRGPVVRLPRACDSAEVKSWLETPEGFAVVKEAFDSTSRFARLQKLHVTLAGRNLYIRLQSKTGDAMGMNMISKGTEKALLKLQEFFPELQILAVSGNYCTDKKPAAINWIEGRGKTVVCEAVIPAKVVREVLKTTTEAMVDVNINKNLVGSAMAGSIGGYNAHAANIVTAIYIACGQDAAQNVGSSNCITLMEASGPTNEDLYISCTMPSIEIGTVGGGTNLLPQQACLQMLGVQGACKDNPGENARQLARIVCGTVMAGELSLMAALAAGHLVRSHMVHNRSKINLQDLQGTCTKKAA

For `CN(C(=O)c1cnc(N2CC(C)(C)NC2=O)nc1N)c1cccc(C(F)(F)F)c1.Cl` [Compound I as hydrochloride, 4-amino-2-(4,4-dimethyl-2-oxo-1-imidazolidinyl)pyrimidine-5-carboxylic acid N-methyl-N-(3-trifluoromethylphenyl)amide hydrochloride], the IC50 [1] was > 100 µg/mL, the IC50 [2] was 13.4 µg/mL and the “Increase in LDL receptor mRNA level in rat liver” value (LDL receptor mRNA) was “about 2.5 -fold”. The “Proliferation inhibition compared with imanixil (HOE 402) / its hydrochloride (in words)” value [3] was “must be given at a considerably higher dose in order to have the same proliferation-inhibiting effect”, the solubility (physchem) was 430 mg/mL and the IC50 [4] was > 100 µg/mL. For the same compound, the “Overinduction of LDL receptor mRNA in lipoprotein-deficient serum compared with whole serum” value ([5]; 10^-6 M, 16 hours) was “further by the same factor as was observed on stimulation in whole serum”, the “Dependence of LDL receptor mRNA stimulation on cholesterol supply level” value ([5]; whole serum and lipoprotein-deficient serum) was “does not depend on the cholesterol "supply level"” and the “Influence on HMG-CoA reductase enzyme activity compared with control incubations” value (HMG-CoA reductase) was “does not influence”.
